Measured values as given in patent US10952436B2, “Microbiocidal quinoline (thio)carboxamide derivatives” (SYNGENTA PARTICIPATIONS AG, priority 2017, dated 2021).

How the values were obtained:
[1] = test system: Glomerella lagenarium (Colletotrichum lagenarium); assay: Glomerella lagenarium (Colletotrichum lagenarium)/Liquid Culture (Anthracnose); format: cell-based; conditions: Colletotrichum orbiculare; 200 ppm; liquid culture, compared to untreated control, 3-4 days after application; read-out: control of Glomerella lagenarium
[2] = test system: Botryotinia fuckeliana (Botrytis cinerea); assay: Botryotinia fuckeliana (Botrytis cinerea)/Liquid Culture (Gray Mould); format: cell-based; conditions: 200 ppm, liquid culture, compared to untreated control, 3-4 days after application, read-out: control of Botryotinia fuckeliana
[3] = test system: Fusarium culmorum; assay: whole plant or invertebrate; format: in vivo; conditions: in Triticum aestivum, read-out: control of Fusarium culmorum
[4] = test system: Monographella nivalis (Microdochium nivale); assay: Monographella nivalis (Microdochium nivale)/Liquid Culture (Foot Rot Cereals); format: cell-based; conditions: 200 ppm, liquid culture, compared to untreated control, 4-5 days after application, read-out: control of Monographella nivalis
[5] = test system: Magnaporthe grisea (Pyricularia oryzae); assay: microbe, parasite or virus in culture; format: cell-based; conditions: read-out: control of Magnaporthe grisea
[6] = test system: Fusarium culmorum; assay: microbe, parasite or virus in culture; format: cell-based; conditions: read-out: control of Fusarium culmorum

With Cc1nc2c(F)cccc2cc1NC(=O)C(Cc1ccccc1)CC1(C)CC1 (stereo not drawn) the melting point was 162 to 163 °C.

Cc1c(NC(=O)C(Cc2ccccc2)CC2(C)CC2)cnc2c(F)cccc12 (stereo not drawn) showed a melting point of 144 to 146 °C.

CC1(CC(Cc2ccccc2)C(=O)Nc2cnc3c(F)cccc3c2)CC1 (stereo not drawn) gave a melting point of 135 to 136 °C.

For C[C@@](Cc1ccccc1)(CC(F)(F)F)C(=O)Nc1cnc2c(F)cccc2c1 (single isomer, unassigned) [Compound F-24], the inhibition of growth at 200 ppm [1] was ≥ 80%, the inhibition of growth at 200 ppm [2] was ≥ 80% and the pest or weed control at 200 ppm [3] was ≥ 80%. The inhibition of growth at 200 ppm [4] was ≥ 80%, the inhibition of growth at 200 ppm [5] was ≥ 80% and the inhibition of growth at 200 ppm [6] was ≥ 80%.

In the case of C#CCC(C)(Cc1ccccc1)C(=O)Nc1cnc2c(F)cccc2c1C (stereo not drawn) [Compound E-3, 2-benzyl-N-(8-fluoro-4-methyl-3-quinolyl)-2-methyl-pent-4-ynamide], the inhibition of growth at 200 ppm [1] is reported as ≥ 80%, the inhibition of growth at 200 ppm [2] is reported as ≥ 80% and the inhibition of growth at 200 ppm [4] is reported as ≥ 80%. For the same compound, the inhibition of growth at 200 ppm [6] was ≥ 80%.

For C=C(Cl)CC(Cc1ccccc1)C(=O)Nc1cc2cccc(F)c2nc1C (stereo not drawn) [Compound E-4, 2-benzyl-4-chloro-N-(8-fluoro-2-methyl-3-quinolyl)pent-4-enamide], the inhibition of growth at 200 ppm [1] was ≥ 80%, the melting point was 96 to 99 °C and the inhibition of growth at 200 ppm [2] was ≥ 80%. The inhibition of growth at 200 ppm [6] was ≥ 80%.

For CC(C)CC(C)(Cc1cccc(F)c1)C(=O)Nc1cnc2c(F)cccc2c1 (stereo not drawn) [Compound E-7, 2-[(3-fluorophenyl)methyl]-N-(8-fluoro-3-quinolyl)-2,4-dimethyl-pentanamide], the inhibition of growth at 200 ppm [1] was ≥ 80%, the inhibition of growth at 200 ppm [2] was ≥ 80% and the inhibition of growth at 200 ppm [4] was ≥ 80%. For the same compound, the inhibition of growth at 200 ppm [5] was ≥ 80% and the inhibition of growth at 200 ppm [6] was ≥ 80%.

In the case of C=C(CC(C)(Cc1ccccc1)C(=O)Nc1cnc2c(F)cccc2c1)C(F)(F)F (stereo not drawn) [Compound E-23, 2-benzyl-N-(8-fluoro-3-quinolyl)-2-methyl-4-(trifluoromethyl)pent-4-enamide], the inhibition of growth at 200 ppm [1] is reported as ≥ 80%, the inhibition of growth at 200 ppm [2] is reported as ≥ 80% and the inhibition of growth at 200 ppm [4] is reported as ≥ 80%. For the same compound, the inhibition of growth at 200 ppm [5] was ≥ 80% and the inhibition of growth at 200 ppm [6] was ≥ 80%.

For C=C(C(Cc1ccccc1)C(=O)Nc1cnc2c(F)cccc2c1)C(F)(F)F (stereo not drawn) [Compound E-24, 2-benzyl-N-(8-fluoro-3-quinolyl)-3-(trifluoromethyl)but-3-enamide], the inhibition of growth at 200 ppm [1] was ≥ 80%, the inhibition of growth at 200 ppm [2] was ≥ 80% and the inhibition of growth at 200 ppm [4] was ≥ 80%. For the same compound, the inhibition of growth at 200 ppm [5] was ≥ 80% and the inhibition of growth at 200 ppm [6] was ≥ 80%.

For C/C=C(\C)CC(C)(Cc1ccccc1)C(=O)Nc1cnc2c(F)cccc2c1 (stereo not drawn) [Compound E-32, (E)-2-benzyl-N-(8-fluoro-3-quinolyl)-2,4-dimethyl-hex-4-enamide], the inhibition of growth at 200 ppm [1] was ≥ 80%, the inhibition of growth at 200 ppm [2] was ≥ 80% and the pest or weed control at 200 ppm [3] was ≥ 80%. The inhibition of growth at 200 ppm [4] was ≥ 80%, the inhibition of growth at 200 ppm [5] was ≥ 80% and the inhibition of growth at 200 ppm [6] was ≥ 80%.

With CC(CCC(F)F)(Cc1ccccc1)C(=O)Nc1cnc2c(F)cccc2c1 (stereo not drawn) [Compound E-34, 2-benzyl-5,5-difluoro-N-(8-fluoro-3-quinolyl)-2-methyl-pentanamide] the inhibition of growth at 200 ppm [1] was ≥ 80%, the inhibition of growth at 200 ppm [2] was ≥ 80% and the inhibition of growth at 200 ppm [5] was ≥ 80%. For the same compound, the inhibition of growth at 200 ppm [6] was ≥ 80%.

With CC(C)CC(Cc1ccccc1)C(=O)Nc1cnc2c(F)cccc2c1 (stereo not drawn) [Compound E-35, 2-benzyl-N-(8-fluoro-3-quinolyl)-4-methyl-pentanamide] the inhibition of growth at 200 ppm [1] was ≥ 80%, the inhibition of growth at 200 ppm [2] was ≥ 80% and the pest or weed control at 200 ppm [3] was ≥ 80%. The inhibition of growth at 200 ppm [5] was ≥ 80% and the inhibition of growth at 200 ppm [6] was ≥ 80%.

In the case of CCC(C)CC(C)(Cc1ccccc1)C(=O)Nc1cnc2c(F)cccc2c1 (stereo not drawn) [Compound E-36, 2-benzyl-N-(8-fluoro-3-quinolyl)-2,4-dimethyl-hexanamide], the inhibition of growth at 200 ppm [1] is reported as ≥ 80%, the inhibition of growth at 200 ppm [2] is reported as ≥ 80% and the inhibition of growth at 200 ppm [4] is reported as ≥ 80%. For the same compound, the inhibition of growth at 200 ppm [5] was ≥ 80% and the inhibition of growth at 200 ppm [6] was ≥ 80%.

For Cc1nc2c(F)cccc2cc1NC(=O)C(C)(Cc1ccccc1)OC(C)C (stereo not drawn) [Compound E-39, N-(8-fluoro-2-methyl-3-quinolyl)-2-isopropoxy-2-methyl-3-phenyl-propanamide], the inhibition of growth at 200 ppm [1] was ≥ 80%, the inhibition of growth at 200 ppm [2] was ≥ 80% and the pest or weed control at 200 ppm [3] was ≥ 80%. The inhibition of growth at 200 ppm [4] was ≥ 80%, the inhibition of growth at 200 ppm [5] was ≥ 80% and the inhibition of growth at 200 ppm [6] was ≥ 80%.

In the case of CC(C)OC(C)(Cc1ccccc1)C(=O)Nc1cnc2c(F)cccc2c1 (stereo not drawn) [Compound E-40, N-(8-fluoro-3-quinolyl)-2-isopropoxy-2-methyl-3-phenyl-propanamide], the inhibition of growth at 200 ppm [1] is reported as ≥ 80%, the inhibition of growth at 200 ppm [2] is reported as ≥ 80% and the pest or weed control at 200 ppm [3] is reported as ≥ 80%. The inhibition of growth at 200 ppm [4] was ≥ 80%, the inhibition of growth at 200 ppm [5] was ≥ 80% and the inhibition of growth at 200 ppm [6] was ≥ 80%.

With COC(C)(Cc1ccccc1)C(=O)Nc1cc2cccc(F)c2nc1C (stereo not drawn) [Compound E-41, N-(8-fluoro-2-methyl-3-quinolyl)-2-methoxy-2-methyl-3-phenyl-propanamide] the inhibition of growth at 200 ppm [1] was ≥ 80%, the inhibition of growth at 200 ppm [2] was ≥ 80% and the pest or weed control at 200 ppm [3] was ≥ 80%. For the same compound, the inhibition of growth at 200 ppm [4] was ≥ 80%, the inhibition of growth at 200 ppm [5] was ≥ 80% and the inhibition of growth at 200 ppm [6] was ≥ 80%.

In the case of CC(Cc1ccccc1)(CC(F)F)C(=O)Nc1cnc2c(F)cccc2c1 (stereo not drawn) [Compound E-55, 2-benzyl-4,4-difluoro-N-(8-fluoro-3-quinolyl)-2-methyl-butanamide], the inhibition of growth at 200 ppm [1] is reported as ≥ 80%, the inhibition of growth at 200 ppm [2] is reported as ≥ 80% and the pest or weed control at 200 ppm [3] is reported as ≥ 80%. For the same compound, the inhibition of growth at 200 ppm [4] was ≥ 80%, the inhibition of growth at 200 ppm [5] was ≥ 80% and the inhibition of growth at 200 ppm [6] was ≥ 80%.

With CC(C=C(F)F)(Cc1ccccc1)C(=O)Nc1cnc2c(F)cccc2c1 (stereo not drawn) [Compound E-57, 2-benzyl-4,4-difluoro-N-(8-fluoro-3-quinolyl)-2-methyl-but-3-enamide] the inhibition of growth at 200 ppm [1] was ≥ 80%, the inhibition of growth at 200 ppm [2] was ≥ 80% and the pest or weed control at 200 ppm [3] was ≥ 80%. For the same compound, the inhibition of growth at 200 ppm [4] was ≥ 80%, the inhibition of growth at 200 ppm [5] was ≥ 80% and the inhibition of growth at 200 ppm [6] was ≥ 80%.

With CON(C(=O)C(C)(Cc1ccccc1)CC(C)C)c1cnc2c(F)cccc2c1 (stereo not drawn) [Compound E-61, 2-benzyl-N-(8-fluoro-3-quinolyl)-N-methoxy-2,4-dimethyl-pentanamide] the inhibition of growth at 200 ppm [1] was ≥ 80%, the inhibition of growth at 200 ppm [2] was ≥ 80% and the inhibition of growth at 200 ppm [4] was ≥ 80%. For the same compound, the inhibition of growth at 200 ppm [5] was ≥ 80% and the inhibition of growth at 200 ppm [6] was ≥ 80%.

In the case of C=C(C)CC(C)(Cc1ccccc1)C(=O)Nc1cnc2ccc(OC)cc2c1 (stereo not drawn) [Compound E-62, 2-benzyl-N-(6-methoxy-3-quinolyl)-2,4-dimethyl-pent-4-enamide], the inhibition of growth at 200 ppm [4] is reported as ≥ 80%.

For C=C(C)CC(C)(Cc1ccccc1)C(=O)Nc1cnc2ccccc2c1 (stereo not drawn) [Compound E-64, 2-benzyl-2,4-dimethyl-N-(3-quinolyl)pent-4-enamide], the inhibition of growth at 200 ppm [1] was ≥ 80%, the inhibition of growth at 200 ppm [2] was ≥ 80% and the pest or weed control at 200 ppm [3] was ≥ 80%. The inhibition of growth at 200 ppm [4] was ≥ 80%, the inhibition of growth at 200 ppm [5] was ≥ 80% and the inhibition of growth at 200 ppm [6] was ≥ 80%.

With O=C(Nc1cnc2ccccc2c1)C(Cc1ccccc1)CC(F)(F)F (stereo not drawn) [Compound E-79, 2-benzyl-4,4,4-trifluoro-N-(3-quinolyl)butanamide] the inhibition of growth at 200 ppm [1] was ≥ 80%, the inhibition of growth at 200 ppm [2] was ≥ 80% and the inhibition of growth at 200 ppm [5] was ≥ 80%. For the same compound, the inhibition of growth at 200 ppm [6] was ≥ 80%.

In the case of Cc1nc2c(F)cccc2cc1NC(=O)C(C)(Cc1ccccc1)CC(C)C (stereo not drawn) [Compound E-86, 2-benzyl-N-(8-fluoro-2-methyl-3-quinolyl)-2,4-dimethyl-pentanamide], the inhibition of growth at 200 ppm [1] is reported as ≥ 80%, the inhibition of growth at 200 ppm [2] is reported as ≥ 80% and the pest or weed control at 200 ppm [3] is reported as ≥ 80%. The inhibition of growth at 200 ppm [4] was ≥ 80% and the inhibition of growth at 200 ppm [6] was ≥ 80%.

With C#CCC(Cc1ccccc1)C(=O)Nc1cnc2c(F)cccc2c1C (stereo not drawn) [Compound E-95] the inhibition of growth at 200 ppm [1] was ≥ 80%, the inhibition of growth at 200 ppm [2] was ≥ 80% and the inhibition of growth at 200 ppm [4] was ≥ 80%. For the same compound, the inhibition of growth at 200 ppm [6] was ≥ 80%.

With C[C@@](Cc1ccccc1)(CC(F)(F)F)C(=O)Nc1cnc2c(F)c(F)ccc2c1 [Compound F-16, (2R)-2-benzyl-N-(7,8-difluoro-3-quinolyl)-4,4,4-trifluoro-2-methyl-butanamide] the inhibition of growth at 200 ppm [1] was ≥ 80%, the inhibition of growth at 200 ppm [2] was ≥ 80% and the inhibition of growth at 200 ppm [4] was ≥ 80%. The inhibition of growth at 200 ppm [5] was ≥ 80% and the inhibition of growth at 200 ppm [6] was ≥ 80%.

In the case of Cc1cccc2cc(NC(=O)[C@@](C)(Cc3ccccc3)CC(F)(F)F)cnc12 [Compound F-17, (2S)-2-benzyl-4,4,4-trifluoro-2-methyl-N-(8-methyl-3-quinolyl)butanamide], the inhibition of growth at 200 ppm [1] is reported as ≥ 80%, the inhibition of growth at 200 ppm [2] is reported as ≥ 80% and the inhibition of growth at 200 ppm [4] is reported as ≥ 80%. For the same compound, the inhibition of growth at 200 ppm [5] was ≥ 80% and the inhibition of growth at 200 ppm [6] was ≥ 80%.

In the case of Cc1cccc2cc(NC(=O)[C@](C)(Cc3ccccc3)CC(F)(F)F)cnc12 [Compound F-18, (2R)-2-benzyl-4,4,4-trifluoro-2-methyl-N-(8-methyl-3-quinolyl)butanamide], the inhibition of growth at 200 ppm [1] is reported as ≥ 80%, the inhibition of growth at 200 ppm [2] is reported as ≥ 80% and the inhibition of growth at 200 ppm [4] is reported as ≥ 80%. The inhibition of growth at 200 ppm [5] was ≥ 80% and the inhibition of growth at 200 ppm [6] was ≥ 80%.

With CC(C)C[C@](C)(Cc1ccccc1)C(=O)Nc1cnc2c(F)cccc2c1 [Compound F-19, (2R)-2-benzyl-N-(8-fluoro-3-quinolyl)-2,4-dimethyl-pentanamide] the inhibition of growth at 200 ppm [1] was ≥ 80%, the inhibition of growth at 200 ppm [2] was ≥ 80% and the pest or weed control at 200 ppm [3] was ≥ 80%. For the same compound, the inhibition of growth at 200 ppm [6] was ≥ 80%.
